Assay results taken from patent US5096929A, “2-amino-1,2,3,4-tetrahydronaphthalene derivatives with cardiovascular activity, process for their preparation and pharmaceutical compositions containing them” (Chiesi Farmaceutici S.p.A., priority 1989, dated 1992).
Structures can show the parent of a compound that is named as a salt. Where two headings read alike, the source gives them in different places.

How the values were obtained:
isolated rat left atrium = test: Isolated rat left atrium: inotropic activity (force); conditions: for EC50 / Emax: Rattus norvegicus; for EC50: read-out: EC50, left atrium (force); for Inotropic activity of diastereoisomeric mixture (in words): rat isolated left atrium; for Activity in isolated rat left atrium and right atrium (in words): Table I and text
Description: (§1) The inotropic and chronotropic effects of compound (Ia) of the invention were determined in vitro using, respectively, isolated rat left atrium and right atrium.
Left atrium:inotrocic activity
The atria were subjected to a 0.5 g starting tension and suspended in a bath containing aerated Krebs-Henseleit j solution with 95% O2 and […] kept at 32.C. The preparation was stimulated at a 4 Hz frequency with pulses during 5 msec each. The contraction strength was detected by an isometric transducer and recorded on a microndynamometer.
(§2) The results were expressed as the percentage of the response obtained with a maximal dose ([…]) of isoproterenol which was determined at the beginning of the test. In Table 1 the potency (EC50=effective concentration inducing the 50% of the maximal effect) and the relative intrinsic activity (expressed as α and compared with that of isoproterenol, taken=1) are shown.
(§3) The effects of the compounds were evaluated in rat isolated atria according to the previously described method.
(§4) Table 3. Potency (EC50) and intrinsic activity (α;isoproterenol=1) on the isolated rat left atrium (Inotropic activity) and right atrium (chronotropic activity).

[1] = tested on: isolated rat right atrium; test: Isolated rat right atrium: chronotropic activity (frequency); conditions: Rattus norvegicus; for EC50: read-out: EC50, right atrium (frequency)
Description: as §1
Right atrium:chronotrpic activity
The preparation was prepared in the same way and under the same conditions as described above, but was not subjected to electric stimulation. Frequency was monitored by a cardiotachograph.
as §2, §3, §4

[2] = tested on: arterial rat hind quarter; test: Rat perfused hind quarter; vasodilating action; conditions: for Emax: Rattus norvegicus; for ED40, K+ induced contraction / ED40, norepinephrine induced contraction / ED40, 5-HT induced contraction: dose decreasing contraction by 40%; for ED40, K+ induced contraction: K+ 40 mM; for ED40, 5-HT induced contraction: serotonin 5×10^-7 M
Description: Rat perfused hind quarter; vasodilating action
The vasodilating effect of CHF 1255 has been evaluated in the arterial rat hind quarter perfused with Krebs-Henseleit solution at constant flow.
The increase of arterial resistance was induced by K^+ -enriched solution (40 mM), norepinephrine (5×10^-6 M) and serotonin (5×10^-7 M).
Papaverine and prazosin, powerful α-blocker vasodilator, were used as reference compounds.
ED40 =dose (moles) decreasing of 40% the contraction induced by the agonist. 100% was considered as the complete recduction of contraction.

beta-1 = conditions: background art, cited from earlier work
anesthetized dog = test: Anesthetized dog: cardiovascular activity; assay type: in vivo, Beagle dog; conditions: anesthetized dog, i.v.
Description: The interesting hemodynamic properties of CHF 1255 were confirmed in vivo in the anesthetized dog.
Anesthesized dog: cardiovascular activity
Beagle dogs were anesthetized with sodium pentobarbital (30 mg/kg iv) thoracotomized and monitored by recording cardiocirculatory parameters.
CHF 1255 and the reference drugs (amrinone and xamoterol) were administered i.v. in a bolus.
CHF 1255 at the doses of 0.3-1.3 μmoles/kg i.v. confirmed its activity in changing hemodynamic parameters.

[3] = molecular target: T1, beta-2 adrenergic receptors (Cavia porcellus, UniProt Q8K4Z4); test: Isolated guinea-pig trachea: interactions with beta-2 adrenergic receptors (relaxation of carbachol contraction); conditions: for EC50: guinea-pig trachea, carbachol 3×10^-7 M
T1 construct: Trachea strips were isolated and prepared according to the method described by Emerson J and Machay D; from tissue; host or cells: guinea-pig isolated trachea strips
T1 sequence (Q8K4Z4 whole entry): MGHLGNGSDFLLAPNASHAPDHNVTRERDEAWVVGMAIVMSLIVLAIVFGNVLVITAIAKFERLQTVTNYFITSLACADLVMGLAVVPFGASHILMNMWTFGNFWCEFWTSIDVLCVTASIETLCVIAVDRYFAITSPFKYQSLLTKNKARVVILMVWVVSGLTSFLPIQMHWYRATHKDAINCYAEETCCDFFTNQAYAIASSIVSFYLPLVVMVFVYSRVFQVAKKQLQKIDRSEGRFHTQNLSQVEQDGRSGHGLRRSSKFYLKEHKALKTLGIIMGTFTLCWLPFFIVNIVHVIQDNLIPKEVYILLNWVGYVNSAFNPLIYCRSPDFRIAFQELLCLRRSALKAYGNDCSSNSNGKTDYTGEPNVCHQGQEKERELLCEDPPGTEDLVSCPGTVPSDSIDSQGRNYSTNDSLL
Description: The selectivity of this interaction has been studied by evaluating the effects on beta-2 adrenergic receptors, in the guinea-pig isolated trachea, using CHF 1026 as reference compound.
Isolated guinea-pig trachea: interactions with beta-2 adrenergic receptors
Trachea strips were isolated and prepared according to the method described by Emerson J and Machay D in J Pharm Pharmacol 1979, 31, 798, immersed in Krebs-Henseleit solution (37° C., 95% O2 +5% CO2), subjected to an initial tension of 1 g and contracted with carbachol (3×10^-7 M).
Dose-response curves of CHF 1255 and CHF 1026 were recorded in the absence and in the presence of 10^-6 M propranolol, used as antagonist and added to the bath before the stimulation with carbachol.
The obtained results are shown in Table 2, expressed as potency (EC50 calculated from t he dose--response curve) and intrinsic activity (α, isoproternol=1).

[4] = Table 3, inotropic activity, rat left atrium
[5] = Table I, isolated rat left atrium, 4 Hz stimulation, confidence limits in parentheses
[6] = Table 3, isoproterenol=1, read-out: α, left atrium (force)
[7] = Table I, isoproterenol taken=1, confidence limits in parentheses, read-out: α (intrinsic activity), left atrium (force)
[8] = Table 3, chronotropic activity, rat right atrium
[9] = Table I, isolated rat right atrium, confidence limits in parentheses
[10] = Table 3, isoproterenol=1, read-out: α, right atrium (frequency)
[11] = Table I, isoproterenol taken=1, confidence limits in parentheses, read-out: α (intrinsic activity), right atrium (frequency)

NCCc1ccc(O)c(O)c1 [dopamine]
EC50 (isolated rat left atrium; [4]): 1.19 µM | EC50 (isolated rat left atrium; [5]): 1.2 µM | Emax (isolated rat left atrium; [6]): 95% | Emax (isolated rat left atrium; [7]): 95% | EC50 [1, 8]: 1.89 µM | EC50 [1, 9]: 1.9 µM | Emax [1, 10]: 106% | Emax [1, 11]: 106%

COc1ccc2c(c1OC)CCC(N[C@H](C)[C@@H](O)c1ccc(O)cc1)C2 (some centres unmarked) [CHF 1388, (αR,βS)-5,6-dimethoxy-2-[2-(4-hydroxyphenyl)-2-hydroxy-1-methylamino]-2-hydroxy-I-methylethylamino]--,2,3,4-tetrahydronaphthalene hydrochloride]
Contribution to vasodilating activity of CHF 1255 [2]: vasodilating activity of CHF 1255 is mainly due to CHF 1388 | Inotropic activity of diastereoisomeric mixture (in words) (isolated rat left atrium): did not show any inotropic activity

COc1ccc2c(c1OC)CCC(NCC(O)c1ccc(O)cc1)C2 (centres unmarked) [CHF 1296]
Activity in isolated rat left atrium and right atrium (in words) (isolated rat left atrium): completely inactive

Nc1cc(-c2ccncc2)c[nH]c1=O [amrinone]
EC50 (isolated rat left atrium; [4]): 26.6 µM | Emax (isolated rat left atrium; [6]): 29% | EC50 [1, 8]: 155 µM | Emax [1, 10]: 147%

COc1ccc2c(c1OC)CCC(NCC(O)c1cccc(O)c1)C2 (centres unmarked) [CHF 1297]
Activity in isolated rat left atrium and right atrium (in words) (isolated rat left atrium): completely inactive

COc1ccc2c(c1OC)CCC(N[C@@H](C)[C@H](O)c1ccc(O)cc1)C2 (some centres unmarked) [CHF 1389, (αS, βR)-5,6-Dimethoxy-2-[2-(4-hydroxyphenyl)-2-hydroxy-1-methylethylemino]-1,2,3,4-tetrahydronaphthalene hydrochloride]
Inotropic activity of diastereoisomeric mixture (in words) (isolated rat left atrium): as effective as CHF 1255 in the rat isolated left atrium

O=C(NCCNCC(O)COc1ccc(O)cc1)N1CCOCC1 (centres unmarked) [xamoterol, xamoterol fumarate]
EC50 (isolated rat left atrium): 0.00498 µM | Emax (isolated rat left atrium; read-out: α, left atrium (force)): 33% | Agonistic action relative to isoproterenol (beta-1; % that of isoproterenol): 40% | Tolerability (in words) (beta-1; vs prenalterol): better tolerated | EC50 [1]: 0.00471 µM | Emax ([1]; read-out: α, right atrium (frequency)): 76% | Hemodynamic effects (in words) (anesthetized dog): negligible

COc1cc2nc(N3CCN(C(=O)c4ccco4)CC3)nc(N)c2cc1OC [prazosin]
Emax ([2]; 100% = complete reduction, norepinephrine 5×10^-6 M, read-out: α (efficacy), norepinephrine induced contraction): 96% | ED40, K+ induced contraction [2]: inactive | ED40, norepinephrine induced contraction ([2]; norepinephrine 5×10^-6 M): 1.5e-11 mol | ED40, 5-HT induced contraction [2]: inactive

CC(CCc1ccc(O)cc1)NC1CCc2cc(O)c(O)cc2C1 (centres unmarked) [CHF 1026, 2-[1-(4-hydroxyphenyl)-but-3-ylamino]-6,7-dihydroxy-1,2,3,4-tetrahydronaphthalene, reference compound]
EC50 (isolated rat left atrium; [5]): 0.9 µM | Emax (isolated rat left atrium; [7]): 81% | Effect of propranolol on dose-response curve ([3]; 10^-6 M propranolol): parallelely shifted to the right, showing a competitive antagonistic action | Emax ([3]; guinea pig, isoproterenol=1, without propranolol, read-out: α in absence of propranolol): 99% | EC50 ([3]; with 10^-6 M propranolol, read-out: EC50 in presence of propranolol): 130 µM | EC50 ([3]; without propranolol, read-out: EC50 in absence of propranolol): 0.23 µM | α in presence of propranolol ([3]; isoproterenol=1, with 10^-6 M propranolol): 0.94 | EC50 [1, 9]: 0.13 µM | Emax [1, 11]: 86%

COc1ccc(Cc2nccc3cc(OC)c(OC)cc23)cc1OC [papaverine, Papaverine]
Activity against contraction by the different agents (in words) ([2]; K+, norepinephrine, serotonin): same ED40 for the different experimental conditions | Emax ([2]; read-out: α (efficacy), 5-HT induced contraction): 90% | Emax ([2]; read-out: α (efficacy), K+ induced contraction): 90% | Emax ([2]; read-out: α (efficacy), norepinephrine induced contraction): 95% | ED40, K+ induced contraction [2]: 6.5e-08 mol | ED40, norepinephrine induced contraction ([2]; norepinephrine 5×10^-6 M): 4.5e-08 mol | ED40, 5-HT induced contraction [2]: 5e-08 mol
